Experimental data published in patent US9403830B2, “Inhibitors of leukotriene production” (Boehringer Ingelheim International GmbH, priority 2012, dated 2016).

Assays:
human LTA4 hydrolase = target: T1, human LTA4 hydrolase (Homo sapiens, UniProt P09960); assay: LTA4H Enzyme assay (peptidase, Arg-AMC cleavage); format: biochemical; conditions: LTA4H enzyme 1 nM, Arg-AMC substrate 50 μM, room temperature 1 h, fluorescence 380/460 nm
T1 sequence (P09960 1-611): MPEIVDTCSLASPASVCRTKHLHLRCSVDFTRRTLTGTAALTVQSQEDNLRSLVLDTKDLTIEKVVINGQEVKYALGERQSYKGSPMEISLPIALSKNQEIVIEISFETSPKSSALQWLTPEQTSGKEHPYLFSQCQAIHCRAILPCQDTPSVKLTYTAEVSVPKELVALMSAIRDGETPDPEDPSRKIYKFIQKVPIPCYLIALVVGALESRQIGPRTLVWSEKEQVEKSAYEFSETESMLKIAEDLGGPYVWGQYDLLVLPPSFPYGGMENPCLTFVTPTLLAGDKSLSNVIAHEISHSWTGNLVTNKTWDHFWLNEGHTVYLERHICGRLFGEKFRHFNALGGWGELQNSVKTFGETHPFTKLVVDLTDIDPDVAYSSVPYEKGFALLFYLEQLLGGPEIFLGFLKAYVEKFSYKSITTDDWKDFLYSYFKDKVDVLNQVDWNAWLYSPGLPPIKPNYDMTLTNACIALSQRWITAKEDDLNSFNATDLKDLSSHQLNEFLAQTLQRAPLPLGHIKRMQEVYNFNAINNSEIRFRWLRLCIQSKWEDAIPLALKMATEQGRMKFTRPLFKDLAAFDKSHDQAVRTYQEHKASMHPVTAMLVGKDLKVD
Description: The compounds of the invention are assessed for the ability to interact with human LTA4 hydrolase in an enzymatic assay that measures the ability of the enzyme to cleave the peptide bond of arginyl-aminomethylcoumarin (Arg-AMC). LTA4H Enzyme (1 nM final), Arg-AMC substrate (50 μM final), and compound are combined in a reaction buffer (50 mM Tris-HCl (pH 7.5), 100 mM KCl, 0.5% bovine serum albumin) at room temperature for 1 h. The formation of product is assessed by measuring the fluorescence of aminomethylcoumarin product (excitation wavelength 380 nm/emission wavelength 460 nm). In general, the preferred potency range (IC50) of compounds in the LTA4H Enzyme assay is between 0.1 nM to 10 μM, the more preferred potency range is 0.1 nM to 0.1 μM, and the most preferred potency range is 0.1 nM to 10 nM.

[1] = system: LTB4 synthesis in human whole blood; assay: human whole blood (HWB) assay, inhibition of LTB4 production; format: cell-based; conditions: heparinized human whole blood, calcimycin 20 μM stimulation, plasma LTB4
Description: The compounds of the invention are additionally tested in a human whole blood (HWB) assay to determine their ability to inhibit the synthesis of LTB4 in a cellular system. Compounds are combined with heparinized human whole blood and incubated for 15 minutes at 37° C. Calcimycin (20 μM final, prepared in phosphate-buffered saline, pH 7.4) is then added and the mixture is incubated for another 30 minutes at 37° C. The samples are centrifuged for 5 min at low speed (1500×g) and the plasma layer is removed. Plasma LTB4 concentrations are then measured using an antibody-based homogenous time-resolved fluorescence method (CisBio, Bedford, Mass.). In general, the preferred potency range (IC50) of compounds in the HWB assay is between 10 nM to 10 μM, the more preferred potency range is 10 nM to 1 μM, and the most preferred potency range is 10 nM to 100 nM.

SMILES	IC50 (human LTA4 hydrolase) [nM]	IC50 [1] [nM]
c1cc(-c2ccc(Oc3ccc4[nH]c(CNC[C@@H]5CCCO5)nc4c3)cc2)[nH]n1 [Example 100, {5-[4-(2H-Pyrazol-3-yl)-phenoxy]-1H-benzoimidazol-2-ylmethyl}-[(S)-1-(tetrahydro-furan-2-yl)methyl]-amine]	0.42	170
c1cc(-c2ccc(Oc3ccc4[nH]c(CNC5CCCOC5)nc4c3)cc2)[nH]n1 (stereo not drawn) [Example 181, {5-[4-(2H-Pyrazol-3-yl)-phenoxy]-1H-benzoimidazol-2-ylmethyl}-(tetrahydro-pyran-3-yl)-amine]	0.21	150
COC[C@H](C)NCc1nc2cc(Oc3ccc(-c4ccn[nH]4)cc3)ccc2[nH]1 [Example 189, ((S)-2-Methoxy-1-methyl-ethyl)-{5-[4-(2H-pyrazol-3-yl)-phenoxy]-1H-benzoimidazol-2-ylmethyl}-amine]	0.23	160
CCN(CC)Cc1nc2cc(Oc3ccc(-c4ccn[nH]4)cc3)ccc2[nH]1 [Example 152, Diethyl-{5-[4-(2H-pyrazol-3-yl)-phenoxy]-1H-benzoimidazol-2-ylmethyl}-amine]	0.1	71
c1cc(-c2ccc(Oc3ccc4[nH]c(CNC[C@H]5CCCO5)nc4c3)cc2)[nH]n1 [Example 101, {5-[4-(2H-Pyrazol-3-yl)-phenoxy]-1H-benzoimidazol-2-ylmethyl}-[(R)-1-(tetrahydro-furan-2-yl)methyl]-amine]	0.55	190
c1cc(-c2ccc(Oc3ccc4[nH]c(CN5CCCC5)nc4c3)cc2)[nH]n1 [Example 52, 5-[4-(2H-Pyrazol-3-yl)-phenoxy]-2-pyrrolidin-1-ylmethyl-1H-benzoimidazole]	0.12	66
C[C@@H]1CN(Cc2nc3cc(Oc4ccc(-c5ccn[nH]5)cc4)ccc3[nH]2)C[C@H](C)O1 [Example 53, 2-((2R,6S)-2,6-Dimethyl-morpholin-4-ylmethyl)-5-[4-(2H-pyrazol-3-yl)-phenoxy]-1H-benzoimidazole]	0.096	67
CN(Cc1nc2cc(Oc3ccc(-c4ccn[nH]4)cc3)ccc2[nH]1)[C@H]1CCCC[C@@H]1O [Example 229, (1S,2S)-2-(Methyl-{5-[4-(2H-pyrazol-3-yl)-phenoxy]-1H-benzoimidazol-2-ylmethyl}-amino)-cyclohexanol]	0.22	190
CN(C)C(=O)CC1CCN(CC2Cc3ccc(Oc4ccc(-c5ccn[nH]5)cc4)cc3O2)CC1 (stereo not drawn) [Example 169, N,N-Dimethyl-2-(1-{6-[4-(2H-pyrazol-3-yl)-phenoxy]-2,3-dihydro-benzofuran-2-ylmethyl}-piperidin-4-yl)-acetamide]	0.25	120
C[C@H]1COCCN1Cc1nc2cc(Oc3ccc(-c4ccn[nH]4)cc3)ccc2[nH]1 [Example 62, 2-((S)-3-Methyl-morpholin-4-ylmethyl)-5-[4-(2H-pyrazol-3-yl)-phenoxy]-1H-benzoimidazole]	0.13	150
FC(F)(F)CN1CCN(Cc2nc3cc(Oc4ccc(-c5ccn[nH]5)cc4)ccc3[nH]2)CC1 [Example 63, 5-[4-(2H-Pyrazol-3-yl)-phenoxy]-2-[4-(2,2,2-trifluoro-ethyl)-piperazin-1-ylmethyl]-1H-benzoimidazole]	0.11	150
CCOCC1CCN(Cc2nc3cc(Oc4ccc(-c5ccn[nH]5)cc4)ccc3[nH]2)CC1 [Example 193, 2-(4-Ethoxymethyl-piperidin-1-ylmethyl)-5-[4-(2H-pyrazol-3-yl)-phenoxy]-1H-benzoimidazole]	0.13	170
O=C1CCCN1C1CCN(CC2Cc3ccc(Oc4ccc(-c5ccn[nH]5)cn4)cc3O2)CC1 (stereo not drawn) [Example 129, 1-(1-{6-[5-(2H-Pyrazol-3-yl)-pyridin-2-yloxy]-2,3-dihydro-benzofuran-2-ylmethyl}-piperidin-4-yl)-pyrrolidin-2-one]	0.92	190

The next lines start with the values.

IC50 (human LTA4 hydrolase) [nM]	IC50 [1] [nM]	SMILES
0.37	200	c1cc(-c2ccc(Oc3ccc4ncc(CN5CCOCC5)cc4c3)cc2)[nH]n1 [Example 249, 3-Morpholin-4-ylmethyl-6-[4-(2H-pyrazol-3-yl)-phenoxy]-quinoline]
0.3	82	c1cc(-c2ccc(Oc3ccc4nc(CN5CCC6(COC6)C5)ccc4c3)nc2)[nH]n1 [Example 20, 2-(2-Oxa-6-aza-spiro[3.4]oct-6-ylmethyl)-6-[5-(2H-pyrazol-3-yl)-pyridin-2-yloxy]-quinoline]
0.88	120	c1cc(-c2ccc(Oc3ccc4c(cnn4CCN4CCCC4)c3)nc2)[nH]n1 [Example 83, 5-[5-(2H-Pyrazol-3-yl)-pyridin-2-yloxy]-1-(2-pyrrolidin-1-yl-ethyl)-1H-indazole]
1.1	250	O=C1OC[C@@H]2CN(Cc3ccc4cc(Oc5ccc(-c6ccn[nH]6)cn5)ccc4n3)CCN12 [Example 16, (S)-7-{6-[5-(2H-pyrazol-3-yl)-pyridin-2-yloxy]-quinolin-2-ylmethyl}-hexahydro-oxazolo[3,4-a]pyrazin-3-one]
1.6	480	Cc1nc2ccc(Oc3ccc(-c4ccn[nH]4)cc3)cc2cc1CN1CCCC1 [Example 256, 2-Methyl-6-[4-(2H-pyrazol-3-yl)-phenoxy]-3-pyrrolidin-1-ylmethyl-quinoline]
0.94	340	CC(=O)N1C[C@@H]2C[C@H]1CN2Cc1ccc2cc(Oc3ccc(-c4cc[nH]n4)cn3)ccc2n1 [Example 240, 1-((S)-5-{6-[5-(1H-Pyrazol-3-yl)-pyridin-2-yloxy]-quinolin-2-ylmethyl}-2,5-diaza-bicyclo[2.2.1]hept-2-yl)-ethanone]
0.53	200	c1cc(-c2ccc(Oc3ccc4nn(CCCN5CCCC5)cc4c3)cc2)[nH]n1 [Example 105, 5-[4-(2H-Pyrazol-3-yl)-phenoxy]-2-(3-pyrrolidin-1-yl-propyl)-2H-indazole]
4.2	590	O=C1CC[C@H](Oc2ccc3cc(Oc4ccc(-c5ccn[nH]5)cc4)ccc3n2)CN1 [Example 68, (S)-5-{6-[4-(2H-Pyrazol-3-yl)-phenoxy]-quinolin-2-yloxy}-piperidin-2-one]
0.24	84	c1cc(-c2ccc(Oc3ccc4c(cnn4CCN4CCCC4)c3)cc2)[nH]n1 [Example 75, 5-[4-(2H-pyrazol-3-yl)-phenoxy]-1-(2-pyrrolidin-1-yl-ethyl)-1H-indazole]
2.1	280	CC(C)(O)C(=O)NC1CCN(CCn2cc3cc(Oc4ccc(-c5ccn[nH]5)cn4)ccc3n2)CC1 [Example 112, 2-Hydroxy-2-methyl-N-[1-(2-{5-[5-(2H-pyrazol-3-yl)-pyridin-2-yloxy]-indazol-2-yl}-ethyl)-piperidin-4-yl]-propionamide]
0.54	230	CC(=O)N1CCN(CCc2ccc3cc(Oc4ccc(-c5ccn[nH]5)cn4)ccc3n2)CC1 [Example 108, 1-[4-(2-{6-[5-(2H-pyrazol-3-yl)-pyridin-2-yloxy]-quinolin-2-yl}-ethyl)-piperazin-1-yl]-ethanone]
1.3	570	CN(CC(N)=O)Cc1ccc2cc(Oc3ccc(-c4ccn[nH]4)cn3)ccc2n1 [Example 47, 2-(Methyl-{6-[5-(2H-pyrazol-3-yl)-pyridin-2-yloxy]-quinolin-2-ylmethyl}-amino)-acetamide]
0.45	130	CC(=O)N1CCN(CCn2ncc3cc(Oc4ccc(-c5ccn[nH]5)cc4)ccc32)CC1 [Example 90, 1-[4-(2-{5-[4-(2H-Pyrazol-3-yl)-phenoxy]-indazol-1-yl}-ethyl)-piperazin-1-yl]-ethanone]
0.46	150	CC(=O)N1CC2CCC1CN2Cc1ccc2cc(Oc3ccc(-c4ccn[nH]4)cn3)ccc2n1 (stereo not drawn) [Example 148, 1-(5-{6-[5-(2H-Pyrazol-3-yl)-pyridin-2-yloxy]-quinolin-2-ylmethyl}-2,5-diaza-bicyclo[2.2.2]oct-2-yl)-ethanone]
